The values below come from US12241099B2, “Peptide therapeutics for treating Alzheimer's disease and related conditions” (The Board of Regents of the University of Oklahoma, priority 2018, dated 2025).

pIC50: −log10 of the molar value. Residues, ends and D or L forms follow the SMILES beside them.

Test [1] has as its target T1, Aβ1-42 (Homo sapiens, UniProt P05067). Put plainly: ELISA binding of Aβ1-42 to plate-coated neutrophil proteins and derived peptides. Particulars: 150 nM Aβ1-42; plate coated with protein/peptide at 5 μg/ml; no protease inhibitor. Here is the method: CAP37, NE, and CG were purified from human neutrophils and purchased from Athens Research and Technology. BSA was from Sigma Aldrich. CAP37-derived peptides were synthesized by CS Bio Co with a purity >95%. Maxisorp plates from Nunc were coated with 100 μl neutrophil protein, peptide, or BSA diluted at 5 μg/ml in PBS with or without 1 mM PMSF purchased from Sigma Aldrich (for experiments with CAP37, NE, and BSA) or ±125 μM chymostatin purchased from Santa Cruz (for experiments with CG and BSA). Plate coating was done at room temperature for 2 hours with shaking and then at 4° C. overnight. Plates were washed three times in PBST (PBS+0.05% tween), then blocked with 3% BSA in PBST for 1 hour at room temperature with shaking. Plates were washed 3× in PBST, and 150 nM Aβ1-42 (purchased from Bachem and reconstituted in 1 mM NaOH) was added in 0.1% BSA in PBST and incubated 70 minutes at 37° C. Plates were then washed 4 times with PBST and monoclonal mouse anti-amyloid precursor protein/amyloid beta antibody, purchased from Cell Signaling Technology was added at a 1:500 dilution in 1% BSA in PBST and incubated for 1 hour at room temperature with shaking. Plates were washed 4× in PBST and donkey anti mouse HRP-conjugated secondary antibody from Jackson ImmunoResearch Laboratories was added at 1:10,000 in PBST and incubated 1 hour at room temperature with shaking, then washed 4 times in PBST. […] Sulfuric acid (5N) was added to each well to stop the reaction, and the absorbance at 492 nm was read on a Biotek Synergy II plate reader.

In test [2] the target is T1, Aβ1-42. Put plainly: Amyloid Beta (1-42) Thioflavin T fibrillation (aggregation) assay. It is filed as biochemical. Further details: used to monitor the formation of Aβ1-42 peptide fibrils; purchased Anaspec. Here is the method: The Amyloid Beta (1-42) Thioflavin T Aggregation Kit was purchased from Anaspec and used to monitor the formation of Aβ1-42 peptide fibrils, according to the manufacturer's instructions, with some modifications. Thioflavin T dye was diluted to 250 μM in fibrillation buffer A and kept in the dark until use. […] Neutrophil proteins were tested in the absence and presence of protease inhibitors. […] Chymostatin was dissolved in DMSO and used at 125 μM final concentration in reactions with CG. Reactions were pipetted up and down twice in the wells with a multichannel pipette to ensure mixing, and fluorescence (ΔEX=440 nm, ΔEm=485 nm) was read every 5 minutes for 3 hours on a BioTek Synergy 2 plate reader with Gen 5 software, with a sensitivity set at 65.

In test [3] the target is T1, Aβ1-42. Put plainly: Enzyme activity assay (cleavage of Aβ1-42, MALDI-TOF). Type of test: biochemical. Further details: used to monitor the formation of Aβ1-42 peptide fibrils; purchased Anaspec. As to the method: Aβ1-42 treated with hexafluoroisopropanol was purchased from Bachem and reconstituted in anhydrous DMSO at 5 mM. Reactions were set up with increasing concentrations of enzyme (CAP37, NE or CG) and 10 μM Aβ1-42 substrate in PBS, and incubated at 37° C. for 1 hour. Reactions were stopped by the addition of acetonitrile and trifluoroacetic acid (TFA) to final concentrations of 7.5% and 0.5% respectively. Internal standard (Aβ40-1 from Bachem) dissolved in 10% acetic acid was added to a final concentration of 8 μg/ml. A 10 μl aliquot of this mixture was desalted on a C18 OMIX tip from Agilent Technologies. First, the C18 resin was rinsed with 2×10 μl of 50% methanol, then 2×10 μl of equilibration buffer (5% acetonitrile 0.5% TFA), then the sample was applied to the resin by pipetting 10 times through the resin, which was then washed twice with equilibration buffer and eluted with 75% acetonitrile 0.1% TFA.
Desalted samples were analyzed by Matrix Assisted Laser Desorption/Ionization-Time of Flight mass spectrometry (MARLDI-TOF) using a Bruker Ultraflex II instrument and Flex Control Software. […] Chromatographs were analyzed with Flex Analysis software. […] The ratio of the Aβ1-42 peak intensity divided by the internal standard peak intensity was calculated for each spot, and triplicate spots were averaged to determine the amount of uncleaved Aβ in each enzymatic reaction.

Test [4] deals with mouse neuroblastoma cell line Neuro-2a. The test can be described thus: Neurotoxicity assay of Aβ1-42 fibrils/oligomers (trypan blue cell death). Type of test: cell-based. Particulars: oligomers formed 15 min in presence of increasing concentrations; 18 μM Aβ1-42 on cells, 24 hours. As to the method:
A mouse neuroblastoma cell line Neuro-2a from ATCC was used for these experiments. Cells were grown and seeded in 96 well plates at 20,000 cells per well in complete medium (MEM α, nucleosides, no phenol red from Gibco, with 10% heat inactivated fetal bovine serum from Gibco, and penicillin/streptomycin from Lonza). At 24 hours after seeding, cells were washed with warmed MEM α, and then incubated in 90 μl MEM α+N2 Supplements+20 μl test sample (Aβ1-42 prepared as described below). Cells were incubated another 24 hours at 37° C., and then dislodged by pipetting up and down vigorously. 10 μl of cells were added to 10 μl trypan blue dye (0.4% solution) from BioRad, mixed and counted in a BioRad TC20 cell counter. The percent of living and dead cells was recorded for each well. In the case of the water and Triton X100 controls, 20 μl MEM α+N2 Supplements was added instead of the test sample and, just before counting the cells, 20 μl of medium was removed and replaced with 20 μl water or Triton X100 at a final concentration of 0.1%.
Monomeric Aβ1-42 (hexafluoroisopropanol treated Aβ1-42) from Bachem was reconstituted at 5 mM in anhydrous DMSO. Untreated Aβ1-42 from CS Bio was also used in these experiments. It was first treated with 1 mM in hexafluoroisopropanol from Sigma Aldrich, incubated 30 min at room temperature, and left open to dry in the fume hood overnight. It was then vacuum desiccated for 1 hour at room temperature. Dry films of Aβ1-42 were stored at −20° C. until use to keep it under a monomeric form. Aβ1-42 from CS Bio was also reconstituted in anhydrous DMSO at 5 mM before use.
To prepare the fibril and oligomer test samples, monomeric Aβ1-42 was placed under conditions favoring either formation of fibrils or oligomers. To form fibrils, 100 μM Aβ1-42 was added to Anaspec fibrillation buffer A±neutrophil protein, and incubated at 37° C. 24 hours before addition to the cells at a final concentration of 18 μM. Neutrophil proteins were used at Aβ/Protein ratios that led to 50% inhibition of fibrillation (IC50), previously determined for each protein in the fibrillation assay. To form oligomers, MEM α+N2 Supplements was used instead of the fibrillation buffer A±increasing concentrations of neutrophil protein or CAP37-derived peptide. Each mixture was then added to a tube containing freshly prepared Aβ1-42 in DMSO at a final concentration of 100 μM, and incubated 15 min at room temperature. These test samples were then tested on the cells at a final concentration of 18 μM.
Oligomers were formed by incubating 100 μM Aβ1-42 in MEMα+N2 Supplements at 4° C. for 3 days. […] Finally, these oligomers were added to neurons at a final concentration of 18 μM, and percent cell death was measured at 24 h.

T1 sequence (P05067 672-713 limits assumed): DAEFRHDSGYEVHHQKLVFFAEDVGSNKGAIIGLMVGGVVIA

For `CC(C)C[C@H](NC(=O)[C@H](CCCNC(=N)N)NC(=O)CNC(=O)CNC(=O)[C@H](CO)NC(=O)[C@H](CCCNC(=N)N)NC(=O)[C@H](Cc1c[nH]c2ccccc12)NC(=O)[C@H](CO)NC(=O)CNC(=O)[C@H](Cc1c[nH]c2ccccc12)NC(=O)CNC(=O)[C@H](C)NC(=O)[C@@H](NC(=O)[C@H](CCC(N)=O)NC(=O)[C@H](CS)NC(=O)[C@H](CCCNC(=N)N)NC(=O)[C@@H](NC(=O)CN)[C@@H](C)O)C(C)C)C(=O)N[C@@H](CO)C(=O)N[C@@H](CCCNC(=N)N)C(=O)N[C@@H](Cc1ccccc1)C(=O)N1CCC[C@H]1C(=O)N[C@@H](CCCNC(=N)N)C(=O)N[C@@H](Cc1ccccc1)C(=O)N[C@H](C(=O)N[C@@H](CC(N)=O)C(=O)N[C@H](C(=O)O)C(C)C)C(C)C` [120-146 WR] (H-GTRCQVAGWGSWRSGGRLSRFPRFVNV-OH; N-terminus and C-terminus assumed), the “binding of Aβ1-42” value on Aβ1-42 [1] was “binds”. The pIC50 at Aβ1-42 [2] (at time of complete fibrillation of Aβ1-42 control, no protease inhibitor) is around 6.00. For the same molecule, the “inhibition of Aβ1-42 fibrillation (in words)” value at Aβ1-42 [2] (increasing concentrations of peptide, Rfu) is listed as “able to inhibit fibrillation”. Further, the “molar ratio inhibitor/Aβ1-42 corresponding to IC50 of fibrillation” value at Aβ1-42 [2] (ratio at IC50) is given as 1/10. Further, the “enzymatic activity on Aβ1-42” value at Aβ1-42 [3] is “do not have enzymatic activities”. The “effect on Aβ1-42 oligomer toxicity” value in test [4] is “significantly inhibited”.
